From patent US5464855A, “Thiophene-2-carboxamidotetrazoles and pharmaceutical use thereof” (Warner-Lambert Company, priority 1994, dated 1995)

Molecular target: T1, Mac-1 (Homo sapiens, UniProt P05107+P11215)
T1 construct: isolate neutrophils from ethylenediaminetetraacetic acid (EDTA)-treated venous blood obtained from healthy human volunteers; endogenous in cells; host or cells: human neutrophils (PMN) isolated from venous blood of healthy volunteers
Experiment: Human neutrophil Mac-1 adhesion assay (fMLP-stimulated PMN adhesion to KLH-coated plates)
Format: cell-based
Details: human neutrophils, read-out: percent drug inhibition vs. stimulus control
Procedure: Protocol for Human Neutrophil Mac-1 Adhesion Assay
Namely, we utilized Ferrante and Thong's methodology to isolate neutrophils from ethylenediaminetetraacetic acid (EDTA)-treated venous blood obtained from healthy human volunteers. Keyhole limpet hemocyanin (KLH) coated microtiter plates were prepared as follows:
All pipetting was automated using the Cetus Pro/Pette (Perkin-Elmer; division of Applied Biosystems, Foster, Calif.). KLH, Megathura crenulata; Calbiochem-Novabiochem, La Jolla, Calif., was prepared at a concentration of 0.5 mg/mL in Dulbecco's PBS phosphate buffered saline (PBS) with Ca^++, pH 7.2 (DPBS).
Microtiter plates are prewashed with 50% EtOH for 1 hour at 37° C., then drained and blotted to dryness. Then 0.3 mL KLH solution was pipetted into each well of the 96 well microtiter plate, covered and incubated overnight at 37° C. […]
a. mean unstimulated cell control OD is determined and subtracted from all other values b. mean net stimulated, e.g., FMLP, control values are determined c. mean drug values are determined and percent drug inhibition vs. stimulus control are calculated as follows: [formula] d. IC50 determinations, plotting logdose vs. percent inhibition, are determined by linear regression analysis using the least squares method.

T1 sequence (P05107 23-769, other chains not shown): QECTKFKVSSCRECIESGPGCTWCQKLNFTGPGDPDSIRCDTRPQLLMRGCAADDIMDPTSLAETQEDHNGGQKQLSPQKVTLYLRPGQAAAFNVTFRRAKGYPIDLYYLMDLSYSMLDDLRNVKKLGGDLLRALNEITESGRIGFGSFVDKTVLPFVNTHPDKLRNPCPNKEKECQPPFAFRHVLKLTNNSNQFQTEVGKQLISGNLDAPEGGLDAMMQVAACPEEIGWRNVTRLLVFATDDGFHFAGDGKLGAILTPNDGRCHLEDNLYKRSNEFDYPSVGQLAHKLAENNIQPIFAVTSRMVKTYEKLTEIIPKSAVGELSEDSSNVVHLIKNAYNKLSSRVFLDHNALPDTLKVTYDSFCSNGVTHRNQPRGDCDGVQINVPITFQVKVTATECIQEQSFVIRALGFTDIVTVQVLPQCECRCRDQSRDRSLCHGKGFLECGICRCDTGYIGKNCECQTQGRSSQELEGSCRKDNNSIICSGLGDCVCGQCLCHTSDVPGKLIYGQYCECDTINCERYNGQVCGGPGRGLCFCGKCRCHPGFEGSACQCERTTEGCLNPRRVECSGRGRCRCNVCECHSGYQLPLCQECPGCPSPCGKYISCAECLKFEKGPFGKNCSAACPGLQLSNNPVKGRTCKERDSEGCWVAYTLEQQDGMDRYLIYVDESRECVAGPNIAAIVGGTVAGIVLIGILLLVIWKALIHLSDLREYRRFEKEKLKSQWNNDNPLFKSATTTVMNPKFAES

SMILES | inhibition at 33 µM [%]
CC(C)Oc1c(C(=O)Nc2nnn[nH]2)sc2c1CCC2 [Example 2, 3-Isopropoxy-5,6-dihydro-4H-cyclopenta[b]thiophene-2-carboxylic acid (1H-tetrazol-5-yl)-amide] | 27
CC(C)Oc1c(C(=O)Nc2nnn[nH]2)sc2c1CS(=O)(=O)CC2 [Example 6, 3-Isopropoxy-5,5-dioxo-6,7-dihydro-4H-thieno[3,2-c]thiopyran-2-carboxylic acid (1H-tetrazol-5-yl) amide] | 38
